{
  "source": "patent US10842779B2",
  "about": "“Heterocyclic compounds and their use in preventing or treating bacterial infections” (priority 2015, dated 2020)",
  "key": {"[1]": {"target": "T1, TEM-1 (Escherichia coli, UniProt P62593)", "T1 construct": "made in house; host or cells: E. coli", "T1 sequence (P62593 24-286 limits assumed)": "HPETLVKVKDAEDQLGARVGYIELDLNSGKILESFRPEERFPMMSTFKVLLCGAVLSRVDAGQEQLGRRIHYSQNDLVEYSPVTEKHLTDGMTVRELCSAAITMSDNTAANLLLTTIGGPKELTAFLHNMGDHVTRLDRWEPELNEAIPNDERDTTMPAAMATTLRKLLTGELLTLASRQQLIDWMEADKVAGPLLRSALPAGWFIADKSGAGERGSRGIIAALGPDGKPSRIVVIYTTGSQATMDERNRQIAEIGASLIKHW", "assay": "β-Lactamase inhibitory activity, nitrocefin hydrolysis", "assay_type": "biochemical", "settings": "class (A); 30 min pre-incubation", "quoted_text": "Enzyme activity was monitored by spectrophotometric measurement of nitrocefin (NCF-TOKU-E, N005) hydrolysis at 485 nm, at room temperature and in assay buffer A: 100 mM Phosphate pH7, 2% glycerol and 0.1 mg/mL Bovine serum albumin (Sigma, B4287). Enzymes were cloned in E. coli expression vector, expressed and purified in house using classical procedures. To a transparent polystyrene plate (Corning, 3628) were added in each well 5 μL DMSO or inhibitor dilutions in DMSO and 80 μL enzyme in buffer A. Plates were immediately read at 485 nm in a microplate spectrophotometer (BioTek, PowerWave HT) to enable background subtraction. After 30 min of pre-incubation at room temperature, 15 μL of NCF (200 μM final) were finally added in each well. Final enzyme concentrations were 0.1 nM (TEM-1), 0.075 nM (SHV-1), 0.4 nM (CTX-M-15), 1 nM (KPC-2), 0.2 nM (P99 AmpC), 0.2 nM (CMY-37), 0.4 nM (AmpC P. aeruginosa), 0.2 nM (OXA-1), 1.2 nM (OXA-11), 0.4 nM (OXA-15) and 0.3 nM (OXA-48). After 20 min incubation at room temperature, plates were once again read at 485 nm. Enzyme activity was obtained by subtracting the final signal by the background, and was converted to enzyme inhibition using non inhibited wells. IC50 curves were fitted to a classical Langmuir equilibrium model with Hill slope using XLFIT (IDBS)."}, "[2]": {"tested_on": "P. mirabilis", "assay": "MIC of compounds alone, broth microdilution", "assay_type": "cell-based", "settings": "Proteus mirabilis, PMI UFR82, beta-lactamases CMY-2", "description": "(§1) Method 2: MIC of Compounds and Synergy with Ceftazidime Against Bacterial Isolates (Table 2 and 3)\n(§2) Compounds of the present invention were assessed against genotyped bacterial strains alone or in combination with the β-lactam ceftazidime. In the assays, MICs of said compounds, or of ceftazidime at fixed concentrations of said compounds were determined by the broth microdilution method according to the Clinical Laboratory Standards Institute (CLSI—M7-A7). Briefly, compounds alone according to the invention were prepared in DMSO and spotted (2 μL each) on sterile polystyrene plates (Corning, 3788). Compounds and ceftazidime dilutions were prepared in DMSO and spotted (1 μL each) on sterile polystyrene plates (Corning, 3788). Log phase bacterial suspensions were adjusted to a final density of 5×10^5 cfu/mL in cation-adjusted Mueller-Hinton broth (Beckton-Dickinson) and added to each well (98 μL). Microplates were incubated for 16-20 h at 35° C. in ambient air. The MIC of the compounds was defined as the lowest concentration of said compounds that prevented bacterial growth as read by visual inspection. The MIC of ceftazidime at each compound concentration was defined as the lowest concentration of ceftazidime that prevented bacterial growth as read by visual inspection."}, "[3]": {"tested_on": "K. oxytoca", "assay": "MIC of compounds alone, broth microdilution", "assay_type": "cell-based", "settings": "Klebsiella oxytoca; alone; KOX UFR21; beta-lactamases TEM-1, CTX-M-15 OXA-48; read-out: MIC", "description": "as §1, §2"}, "[4]": {"tested_on": "E. aerogenes", "assay": "MIC of compounds alone, broth microdilution", "assay_type": "cell-based", "settings": "Klebsiella aerogenes; alone; EAE 200261; beta-lactamases TEM-x AmpC; read-out: MIC", "description": "as §1, §2"}, "[5]": {"tested_on": "P. aeruginosa", "assay": "MIC of compounds alone, broth microdilution", "assay_type": "cell-based", "settings": "Pseudomonas aeruginosa, alone, read-out: MIC", "description": "as §1, §2"}, "[6]": {"tested_on": "E. coli", "assay": "MIC of compounds alone, broth microdilution", "assay_type": "cell-based", "settings": "Escherichia coli", "description": "as §1, §2"}, "[7]": {"tested_on": "K. pneumoniae", "assay": "MIC of compounds alone, broth microdilution", "assay_type": "cell-based", "settings": "Klebsiella pneumoniae, read-out: MIC", "description": "as §1, §2"}},
  "note": "Where two headings read alike, the source gives them in different places.",
  "data": [
    {"smiles": "O=C(O)C(F)(F)F.O=C1N2C[C@H](c3scnc3[C@H]2c2ncc[nH]2)N1OS(=O)(=O)[O-].[Na+]", "note": "(relative stereo) [Example 1, Sodium and 2,2,2-trifluoroacetate [trans-7-(1H-imidazol-3-ium-2-yl)-9-oxo-3-thia-5,8,10-triaza-tricyclo[6.2.1.0^2,6]undeca-2(6),4-dien-10-yl]sulfate]", "values": [
      {"measurement": "IC50", "setting": "[1]", "result": 12, "unit": "nM"},
      {"measurement": "MIC", "setting": "[2]", "result": 32, "unit": "µg/mL"},
      {"measurement": "MIC", "setting": "[3]", "result": 4, "unit": "µg/mL"},
      {"measurement": "MIC", "setting": "[4]", "result": 8, "unit": "µg/mL"},
      {"measurement": "MIC", "setting": "[5]; PAE CIP107051, beta-lactamases TEM-24", "result": "> 32", "unit": "µg/mL"},
      {"measurement": "MIC", "setting": "[5]; PAE MUS, beta-lactamases OXA-20 OXA-18", "result": "> 32", "unit": "µg/mL"},
      {"measurement": "MIC", "setting": "[6]; ECO 180070, beta-lactamases TEM-1, CTX-M-15, read-out: MIC", "result": 1, "unit": "µg/mL"},
      {"measurement": "MIC", "setting": "[6]; ECO 190314, beta-lactamases CTX-M-1, read-out: MIC", "result": 0.5, "unit": "µg/mL"},
      {"measurement": "MIC", "setting": "[6]; ECO 190317, beta-lactamases TEM-1, SHV-12, CTX-M-15 OXA-1, read-out: MIC", "result": 1, "unit": "µg/mL"},
      {"measurement": "MIC", "setting": "[6]; ECO 190457, beta-lactamases CTX-M-15 OXA-1, read-out: MIC", "result": 1, "unit": "µg/mL"},
      {"measurement": "MIC", "setting": "[6]; ECO 190549, beta-lactamases CTX-M-1, read-out: MIC", "result": 0.25, "unit": "µg/mL"},
      {"measurement": "MIC", "setting": "[6]; ECO 200159, beta-lactamases TEM-1, CTX-M-14, read-out: MIC", "result": 0.25, "unit": "µg/mL"},
      {"measurement": "MIC", "setting": "[6]; ECO 200259, beta-lactamases CTX-M-14, read-out: MIC", "result": 0.5, "unit": "µg/mL"},
      {"measurement": "MIC", "setting": "[6]; ECO 200344, beta-lactamases CTX-M-1, read-out: MIC", "result": 0.5, "unit": "µg/mL"},
      {"measurement": "MIC", "setting": "[6]; ECO 260096, beta-lactamases CTX-M-132, read-out: MIC", "result": 4, "unit": "µg/mL"},
      {"measurement": "MIC", "setting": "[6]; ECO 260304, beta-lactamases CTX-M-15, read-out: MIC", "result": 1, "unit": "µg/mL"},
      {"measurement": "MIC", "setting": "[6]; ECO 260508, beta-lactamases TEM-1, CTX-M-15 OXA-1, read-out: MIC", "result": 2, "unit": "µg/mL"},
      {"measurement": "MIC", "setting": "[6]; ECO UFR16, beta-lactamases TEM-1, CTX-M-15 OXA-1 OXA-48, read-out: MIC", "result": 2, "unit": "µg/mL"},
      {"measurement": "MIC", "setting": "[6]; ECO UFR17, beta-lactamases TEM-1, CTX-M-15 CMY-2 OXA-1 OXA-181, read-out: MIC", "result": 4, "unit": "µg/mL"},
      {"measurement": "MIC", "setting": "[6]; ECO UFR18, beta-lactamases CTX-M-15 OXA-204, read-out: MIC", "result": 1, "unit": "µg/mL"},
      {"measurement": "MIC", "setting": "[6]; ECO UFR19, beta-lactamases CTX-M-15 CMY-2 OXA-1 OXA-204, read-out: MIC", "result": 1, "unit": "µg/mL"},
      {"measurement": "MIC", "setting": "[6]; ECO UFR32, beta-lactamases TEM-1, VEB-1 OXA-10, read-out: MIC", "result": 1, "unit": "µg/mL"},
      {"measurement": "MIC", "setting": "[6]; ECO UFR39, beta-lactamases CTX-M-15 NDM-1, read-out: MIC", "result": 2, "unit": "µg/mL"},
      {"measurement": "MIC", "setting": "[6]; ECO UFR41, beta-lactamases TEM-1, CTX-M-15 CMY-2 OXA-1 NDM-4, read-out: MIC", "result": 16, "unit": "µg/mL"},
      {"measurement": "MIC", "setting": "[6]; ECO UFR45, beta-lactamases TEM-1 CMY-4 OXA-1 OXA-48 VIM-1, read-out: MIC", "result": 0.5, "unit": "µg/mL"},
      {"measurement": "MIC", "setting": "[6]; ECO UFR52, beta-lactamases TEM-1, SHV-12 IMP-8, read-out: MIC", "result": 1, "unit": "µg/mL"},
      {"measurement": "MIC", "setting": "[6]; ECO UFR61O, beta-lactamases TEM-1 KPC-2, read-out: MIC", "result": 1, "unit": "µg/mL"},
      {"measurement": "MIC", "setting": "[6]; ECO UFR62, beta-lactamases TEM-1, CTX-M-9 KPC-2, read-out: MIC", "result": 0.5, "unit": "µg/mL"},
      {"measurement": "MIC", "setting": "[6]; ECO UFR74, beta-lactamases SHV-1 DHA-1, read-out: MIC", "result": 2, "unit": "µg/mL"},
      {"measurement": "MIC", "setting": "[7]; BAA1898, alone, KPN BAA-1898, beta-lactamases TEM-1, SHV-11, SHV-12 KPC-2", "result": 4, "unit": "µg/mL"},
      {"measurement": "MIC", "setting": "[7]; alone, KPN 6299, beta-lactamases TEM-1, SHV-11 OXA-163", "result": 16, "unit": "µg/mL"},
      {"measurement": "MIC", "setting": "[7]; alone, KPN 110376, beta-lactamases TEM-1, SHV-1, CTX-M-15 OXA-1 OXA-48", "result": 2, "unit": "µg/mL"},
      {"measurement": "MIC", "setting": "[7]; alone, KPN 131119, beta-lactamases TEM-1, SHV-11, CTX-M-15 OXA-1 OXA-48", "result": 4, "unit": "µg/mL"},
      {"measurement": "MIC", "setting": "[7]; alone, KPN 160143, beta-lactamases TEM-1, SHV-1, CTX-M-15 KPC-2 OXA-1", "result": 4, "unit": "µg/mL"},
      {"measurement": "MIC", "setting": "[7]; alone, KPN 190128, beta-lactamases TEM-1, SHV-32, CTX-M-15 OXA-1", "result": 4, "unit": "µg/mL"},
      {"measurement": "MIC", "setting": "[7]; alone, KPN 190270, beta-lactamases TEM-1, SHV-76, CTX-M-15 OXA-1", "result": 8, "unit": "µg/mL"},
      {"measurement": "MIC", "setting": "[7]; alone, KPN 190425, beta-lactamases TEM-1, SHV-1, CTX-M-15 OXA-1", "result": 4, "unit": "µg/mL"},
      {"measurement": "MIC", "setting": "[7]; alone, KPN 190551, beta-lactamases TEM-1, SHV-1, CTX-M-15 OXA-1", "result": 2, "unit": "µg/mL"},
      {"measurement": "MIC", "setting": "[7]; alone, KPN 200047, beta-lactamases TEM-1, SHV-32, CTX-M-15 OXA-1", "result": 2, "unit": "µg/mL"},
      {"measurement": "MIC", "setting": "[7]; alone, KPN 200327, beta-lactamases TEM-1, SHV-1, CTX-M-15 OXA-1", "result": 2, "unit": "µg/mL"},
      {"measurement": "MIC", "setting": "[7]; alone, KPN 260251, beta-lactamases TEM-1, SHV-11, SHV-12, CTX-M-15 KPC-2", "result": 4, "unit": "µg/mL"},
      {"measurement": "MIC", "setting": "[7]; alone, KPN 260252, beta-lactamases TEM-1, SHV-11 KPC-3", "result": "> 32", "unit": "µg/mL"},
      {"measurement": "MIC", "setting": "[7]; alone, KPN 260376, beta-lactamases SHV-1, SHV-49 OXA-1", "result": 2, "unit": "µg/mL"},
      {"measurement": "MIC", "setting": "[7]; alone, KPN 270077, beta-lactamases TEM-1, SHV-1, CTX-M-15", "result": 8, "unit": "µg/mL"},
      {"measurement": "MIC", "setting": "[7]; alone, KPN 700603, beta-lactamases SHV-18 OXA-2", "result": 4, "unit": "µg/mL"},
      {"measurement": "MIC", "setting": "[7]; alone, KPN 6122012, beta-lactamases SHV-1 NDM-1", "result": 8, "unit": "µg/mL"}
    ]}
  ]
}
